PMC11403733, “Asymmetric Dirhodium-Catalyzed Modification of Immunomodulatory Imide Drugs and Their Biological Assessment” (ACS Medicinal Chemistry Letters, 2024)
“And” between values parts separate entries of the source, which are not always exact repeats. Equal values may be shown once.

Tests used:
IKZF3 (Aiolos) = molecular target: T1, IKZF3 (Aiolos) (Homo sapiens, UniProt Q96SW2+Q9UKT9); assay: HiBiT degradation assay, DF15/HiBiT-IKZF3 KI cells; assay type: cell-based; conditions: N ≥ 3; for EC50: degradation, 4 hr incubation, top conc 10 uM; for IKZF3 Ymin: depth of degradation (100% = no reduction of protein level, 0% = complete degradation), 4 hr
T1 construct: endogenous in cells; host or cells: DF15 (HiBiT knock-in)
Experimental: (§1) Section 6: Assay Protocols
(§2) Fluorescence Resonance Energy Transfer-Based NSD@ PWWP Cereblon Binding Assay. […]
(§3) Compounds for testing were spotted into a 1536 well plate (Greiner Cat#782075). CRBN and Tracer solution were incubated in compound wells for 20 minutes. Detection mix containing Anti6xHis Tb Crytate (CisBio Cat#61HI2TLF) was then added to assay wells for a final 0.5x assay concentration of detection antibody (stock is provided at 400x). Plates were incubated for 30 minutes before being read on Pherastar FSX plate reader using TR-FRET module (Excitation 340nm, Emssion 615/665nm). ePL and HiBiT degradation assays
(§4) DF15 cells overexpressing ePL tagged GSPT1 (DF15/GSPT1 ePL OE) was used to monitor the degradation of GSPT1 induced by experimental compounds. MDS-L cells overexpressing ePL tagged CK1α and GSPT1G575N (MDS-L/CK1α ePL OE_ GSPT1G575N OE) was used to monitor the degradation of CK1α induced by experimental compounds. NCCIT cells with HiBiT tag knocked in at the c-terminus of SALL4 (NCCIT/SALL4-HiBiT KI) was used to monitor the degradation of SALL4 induced by experimental compounds. DF15 cells with HiBiT tag knocked in at the n-terminus of IKZF3 (DF15/HiBiT-IKZF3 KI) was used to monitor the degradation of AIOLOS (IKZF3) induced by experimental compounds. […]
(§5) The cell culture medium recipes, seeding densities and compound incubation time with cells are […]
(§6) Ta r g e t Cell line Cell culture medium Seeding Compound
(§7) (HI) FBS, 1mM sodium pyruvate, 25mM Hepes, 0.1% pluronic acid,
(§8) GSPT1G575N OE ng/mL of human recombinant IL3 […]
(§9) sodium pyruvate, 25mM Hepes, 0.1% pluronic acid, 1X NEAA
(§10) For all degradation assays, compounds were pre-spotted in a 153 6 well plate (Corning 3727) starting at 10uM with 3-fold serial dilution down 11 points in replicates using an Echo 650 series acoustic liquid handler. 5uL/well cells were seeded in the assay ready plate at the density and in […]
(§11) The final DMSO concentration in the cell culture was 0.25%. The plates were equilibrated at room temperature for 30 minutes before putting into a 37 °C CO2 incubator. After appropriate incubation period, plates were retrieved from the incubator and set at room temperature to equilibrate for 30 minutes, before adding ePL or HiBiT detection reagent. For ePL detection, the pre-prepared mixture of EA reagent, lysis buffer, and substrate reagent at ratio 1:1:4 from the DiscoverX InCELL Detection Kit (Eurofins 96-0079L) according to the manufacturer ’s recommendation was added 3ul/well into the plate. Plates were incubated in the dark for 1hr at room temperature before reading using a BMG PheraStar luminescence reader. For HiBiT detection, Nano-Glo HiBiT Lytic Reagent (Promega, N3050) prepared according to the manufacturer ’s recommendation was added 3 uL/well into the plate. Plates were incubated 30 minutes at room temperature in the dark before reading using a BMG PheraStar […]
(§12) To determine EC50 values for degradation, a four parameter logistic model (Sigmoidal Dose-Response Model) (FIT= (A+((B-A)/1+((C/x)^D)))) C is the inflection point (EC50), D is […] , A and B are the low and high limits of the fit respectively) was used to determine the compound’s EC50 value, which is the half maximum effective concentration. In the degradation assays, the Yconst of each compound was calculated by normalizing the lowest point of the fitted curve to the media only control, which is 0%, and the cells treated with DMSO control, which is 100%. All degradation curves were processed and evaluated using Dotmatics.
(§13) Section 7: Biological Data Tables

SALL4 = molecular target: T2, SALL4 (Homo sapiens, UniProt Q96SW2+Q9UJQ4); assay: HiBiT degradation assay, NCCIT/SALL4-HiBiT KI cells; assay type: cell-based; conditions: N ≥ 3; for EC50: degradation, 2 hr incubation, top conc 10 uM; for SALL4 Ymin: depth of degradation (100% = no reduction, 0% = complete degradation), 2 hr
T2 construct: endogenous in cells; host or cells: NCCIT (HiBiT knock-in)
Experimental: as §1, §2, §3, §4, §5, §6, §7, §8, §9, §10, §11, §12, §13

GSPT1 = molecular target: T3, GSPT1 (Homo sapiens, UniProt P15170+Q96SW2); assay: ePL degradation assay, DF15/GSPT1 ePL OE cells; assay type: cell-based; conditions: N ≥ 3; for EC50: degradation, 20 hr incubation, top conc 10 uM; for GSPT1 Ymin: depth of degradation (100% = no reduction, 0% = complete degradation), 20 hr
T3 construct: expressed in transfected cells; host or cells: DF15
Experimental: as §1, §2, §3, §4, §5, §6, §7, §8, §9, §10, §11, §12, §13

CRBN = molecular target: T4, CRBN (Homo sapiens, UniProt Q96SW2); assay: Fluorescence Resonance Energy Transfer-Based Cereblon Binding Assay (CRBN HTRF); conditions: 0.5 nM 6×His-CRBN-DDB1, 20 nM tracer CC0782985, TR-FRET
T4 construct: (CRBN a.a. 1−442, DDB1 a.a); made in house
Experimental: as §1, §2, §3, §4

CK1α = molecular target: T5, CK1α (Homo sapiens, UniProt P48729+Q96SW2); assay: ePL degradation assay, MDS-L/CK1α ePL OE_GSPT1G575N OE cells; assay type: cell-based; conditions: for EC50: degradation, 4 hr incubation, top conc 10 uM, N ≥ 3, read-out: CK1a EC50; for CK1a Ymin: depth of degradation (100% = no reduction, 0% = complete degradation), 4 hr, N ≥ 3
T5 construct: expressed in transfected cells; host or cells: MDS-L
Experimental: as §1, §2, §3, §4, §5, §6, §7, §8, §9, §10, §11, §12, §13

T3 sequence (P15170 1-637 isoform P15170-3): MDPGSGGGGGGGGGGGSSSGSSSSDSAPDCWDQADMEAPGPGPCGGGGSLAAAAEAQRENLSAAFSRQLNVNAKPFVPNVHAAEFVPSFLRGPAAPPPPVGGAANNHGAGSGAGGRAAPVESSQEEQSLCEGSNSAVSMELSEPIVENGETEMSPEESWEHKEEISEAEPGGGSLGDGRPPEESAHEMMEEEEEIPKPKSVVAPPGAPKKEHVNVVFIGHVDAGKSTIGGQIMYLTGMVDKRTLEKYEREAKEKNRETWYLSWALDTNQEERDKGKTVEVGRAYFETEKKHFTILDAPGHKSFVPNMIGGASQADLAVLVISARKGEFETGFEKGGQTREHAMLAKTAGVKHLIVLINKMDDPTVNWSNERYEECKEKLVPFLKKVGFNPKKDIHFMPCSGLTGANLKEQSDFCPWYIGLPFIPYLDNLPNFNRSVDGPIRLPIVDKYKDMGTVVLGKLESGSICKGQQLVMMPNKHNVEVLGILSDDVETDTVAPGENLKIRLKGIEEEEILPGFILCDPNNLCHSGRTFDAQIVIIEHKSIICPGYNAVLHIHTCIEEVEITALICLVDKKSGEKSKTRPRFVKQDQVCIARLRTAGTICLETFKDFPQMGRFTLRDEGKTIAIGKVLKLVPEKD
T3 sequence (Q96SW2 whole entry): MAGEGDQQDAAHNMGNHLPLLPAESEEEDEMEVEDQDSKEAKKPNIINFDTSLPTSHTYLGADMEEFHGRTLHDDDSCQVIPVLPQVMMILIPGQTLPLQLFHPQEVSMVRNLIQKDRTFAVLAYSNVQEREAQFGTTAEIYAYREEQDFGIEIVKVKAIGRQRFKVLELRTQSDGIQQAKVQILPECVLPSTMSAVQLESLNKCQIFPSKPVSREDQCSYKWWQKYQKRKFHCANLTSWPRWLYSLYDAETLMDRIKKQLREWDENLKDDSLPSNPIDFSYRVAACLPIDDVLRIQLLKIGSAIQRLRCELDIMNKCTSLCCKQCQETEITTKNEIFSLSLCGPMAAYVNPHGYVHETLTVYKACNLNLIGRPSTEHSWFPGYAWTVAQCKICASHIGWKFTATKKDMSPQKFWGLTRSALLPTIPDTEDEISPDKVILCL
T3 sequence (Q16531 whole entry partner): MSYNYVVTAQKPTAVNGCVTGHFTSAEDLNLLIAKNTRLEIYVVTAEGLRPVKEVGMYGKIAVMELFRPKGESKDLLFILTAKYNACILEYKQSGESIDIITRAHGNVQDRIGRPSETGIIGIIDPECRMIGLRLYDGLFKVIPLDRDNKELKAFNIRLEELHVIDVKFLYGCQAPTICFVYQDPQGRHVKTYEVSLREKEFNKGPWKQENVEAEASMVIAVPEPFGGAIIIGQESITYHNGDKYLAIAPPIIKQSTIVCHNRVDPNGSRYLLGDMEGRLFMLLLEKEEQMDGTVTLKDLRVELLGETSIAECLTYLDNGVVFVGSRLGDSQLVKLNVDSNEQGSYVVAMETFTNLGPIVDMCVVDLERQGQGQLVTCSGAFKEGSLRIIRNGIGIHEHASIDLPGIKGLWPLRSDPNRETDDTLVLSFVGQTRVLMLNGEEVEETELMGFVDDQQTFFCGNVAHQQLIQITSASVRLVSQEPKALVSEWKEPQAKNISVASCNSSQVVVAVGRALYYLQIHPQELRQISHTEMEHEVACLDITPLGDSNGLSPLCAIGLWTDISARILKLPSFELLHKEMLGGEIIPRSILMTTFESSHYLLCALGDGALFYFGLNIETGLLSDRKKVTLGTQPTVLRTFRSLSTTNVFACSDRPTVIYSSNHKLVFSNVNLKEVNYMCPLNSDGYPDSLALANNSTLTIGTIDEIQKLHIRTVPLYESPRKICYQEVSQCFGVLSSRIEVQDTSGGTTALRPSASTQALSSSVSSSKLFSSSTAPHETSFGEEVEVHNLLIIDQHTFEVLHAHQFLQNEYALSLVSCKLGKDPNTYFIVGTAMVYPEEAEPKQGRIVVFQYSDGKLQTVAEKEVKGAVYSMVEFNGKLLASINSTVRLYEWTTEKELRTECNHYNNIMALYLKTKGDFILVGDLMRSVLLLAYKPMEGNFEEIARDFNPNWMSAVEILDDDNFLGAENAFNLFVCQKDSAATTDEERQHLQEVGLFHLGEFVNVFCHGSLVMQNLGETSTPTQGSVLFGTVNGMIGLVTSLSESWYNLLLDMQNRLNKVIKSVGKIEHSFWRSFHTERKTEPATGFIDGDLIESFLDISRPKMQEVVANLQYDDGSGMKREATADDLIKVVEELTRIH
T2 sequence (Q9UJQ4 whole entry): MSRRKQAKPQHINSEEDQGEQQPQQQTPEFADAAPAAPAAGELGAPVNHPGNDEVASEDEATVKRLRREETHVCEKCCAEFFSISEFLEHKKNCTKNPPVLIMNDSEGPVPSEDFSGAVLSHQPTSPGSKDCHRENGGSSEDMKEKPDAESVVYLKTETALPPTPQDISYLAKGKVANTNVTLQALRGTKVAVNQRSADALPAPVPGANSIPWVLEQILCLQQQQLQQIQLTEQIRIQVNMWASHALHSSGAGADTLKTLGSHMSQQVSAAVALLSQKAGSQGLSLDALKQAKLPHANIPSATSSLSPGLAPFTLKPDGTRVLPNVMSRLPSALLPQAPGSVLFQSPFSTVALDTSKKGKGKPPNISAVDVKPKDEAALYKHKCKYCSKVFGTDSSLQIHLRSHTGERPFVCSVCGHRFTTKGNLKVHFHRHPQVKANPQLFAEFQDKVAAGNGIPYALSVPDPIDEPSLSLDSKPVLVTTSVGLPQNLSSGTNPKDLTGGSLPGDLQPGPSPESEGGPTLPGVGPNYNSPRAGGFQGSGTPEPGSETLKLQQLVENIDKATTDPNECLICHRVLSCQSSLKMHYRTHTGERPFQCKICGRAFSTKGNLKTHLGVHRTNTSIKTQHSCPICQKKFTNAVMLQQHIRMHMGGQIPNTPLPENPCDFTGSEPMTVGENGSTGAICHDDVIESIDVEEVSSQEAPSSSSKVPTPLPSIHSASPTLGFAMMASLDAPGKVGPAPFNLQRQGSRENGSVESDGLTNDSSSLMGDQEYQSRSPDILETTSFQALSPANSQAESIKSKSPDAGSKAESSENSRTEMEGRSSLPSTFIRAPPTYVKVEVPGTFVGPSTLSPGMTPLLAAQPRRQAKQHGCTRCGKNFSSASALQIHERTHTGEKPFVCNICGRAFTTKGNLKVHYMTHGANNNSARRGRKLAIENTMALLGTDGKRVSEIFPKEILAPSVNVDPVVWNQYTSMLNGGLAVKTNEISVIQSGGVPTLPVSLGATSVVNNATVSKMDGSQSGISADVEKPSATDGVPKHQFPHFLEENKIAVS
T2 sequence (Q96SW2 whole entry): as the sequence (Q96SW2 whole entry) above
T2 sequence (Q16531 whole entry partner): as the sequence (Q16531 whole entry partner) above
T4 sequence (Q96SW2 whole entry): as the sequence (Q96SW2 whole entry) above
T4 sequence (Q16531 whole entry partner): as the sequence (Q16531 whole entry partner) above
T1 sequence (Q9UKT9 whole entry): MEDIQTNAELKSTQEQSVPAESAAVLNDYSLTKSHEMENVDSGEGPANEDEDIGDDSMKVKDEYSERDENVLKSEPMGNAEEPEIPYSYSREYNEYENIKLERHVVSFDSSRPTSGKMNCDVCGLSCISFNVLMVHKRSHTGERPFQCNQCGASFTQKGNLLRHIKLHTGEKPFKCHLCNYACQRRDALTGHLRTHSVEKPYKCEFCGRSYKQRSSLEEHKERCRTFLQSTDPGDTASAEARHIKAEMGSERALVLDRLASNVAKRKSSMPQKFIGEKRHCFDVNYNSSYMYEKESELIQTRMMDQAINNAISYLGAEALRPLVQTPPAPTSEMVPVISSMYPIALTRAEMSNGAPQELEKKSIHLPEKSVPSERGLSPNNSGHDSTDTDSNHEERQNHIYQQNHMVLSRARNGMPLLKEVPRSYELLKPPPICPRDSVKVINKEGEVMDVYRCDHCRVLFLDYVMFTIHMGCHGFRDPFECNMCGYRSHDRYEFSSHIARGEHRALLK
T1 sequence (Q96SW2 whole entry): as the sequence (Q96SW2 whole entry) above
T1 sequence (Q16531 whole entry partner): as the sequence (Q16531 whole entry partner) above
T5 sequence (P48729 whole entry): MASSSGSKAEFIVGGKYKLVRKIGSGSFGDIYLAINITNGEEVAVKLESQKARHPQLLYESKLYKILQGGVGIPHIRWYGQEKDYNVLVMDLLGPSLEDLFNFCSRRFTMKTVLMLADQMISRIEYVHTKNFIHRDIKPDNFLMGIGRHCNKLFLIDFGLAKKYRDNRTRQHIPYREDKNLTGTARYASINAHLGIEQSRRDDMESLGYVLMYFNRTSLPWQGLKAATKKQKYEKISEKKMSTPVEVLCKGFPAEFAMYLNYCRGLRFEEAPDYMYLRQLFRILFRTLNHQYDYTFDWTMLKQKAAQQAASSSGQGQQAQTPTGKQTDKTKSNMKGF
T5 sequence (Q96SW2 whole entry): as the sequence (Q96SW2 whole entry) above
T5 sequence (Q16531 whole entry partner): as the sequence (Q16531 whole entry partner) above

Structure (SMILES) | EC50 (IKZF3 (Aiolos)) | EC50 (SALL4) [µM] | SALL4 Ymin (SALL4) [%] | EC50 (GSPT1) | GSPT1 Ymin (GSPT1) [%] | IC50 (CRBN) [µM] | EC50 (CK1α) [µM] | CK1a Ymin (CK1α) [%] | IKZF3 Ymin (IKZF3 (Aiolos))
O=C1CCC(N2Cc3c(cccc3[C@@H]3C[C@]3(C(=O)OCC(Cl)(Cl)Cl)c3ccc(Br)cc3)C2=O)C(=O)N1 (some centres unmarked) [Compound 13a] | > 10 µM and 1.86 µM | > 10 | 85 ± 7.3 | > 10 µM | 92 ± 7.8 | 0.66 | > 10 | 87 ± 0.55 | –
O=C1CCC(N2Cc3c(cccc3[C@H]3C[C@@]3(C(=O)OCC(Cl)(Cl)Cl)c3ccc(Br)cc3)C2=O)C(=O)N1 (some centres unmarked) [Compound 13b] | > 10 µM | > 10 | 97 ± 3.1 | > 10 µM | 99 ± 2.2 | 2.4 | > 10 | 90 ± 7.1 | 97 ± 4.9%
O=C1CCC(N2C(=O)c3cccc([C@@H]4C[C@]4(C(=O)OCC(Cl)(Cl)Cl)c4ccc(Br)cc4)c3C2=O)C(=O)N1 (some centres unmarked) [Compound 14a] | > 10 µM | > 10 | 91 ± 8.0 | > 10 µM | 91 ± 16 | > 10 | > 10 | 92 ± 3.8 | 89 ± 3.2%
O=C1CCC(N2C(=O)c3cccc([C@H]4C[C@@]4(C(=O)OCC(Cl)(Cl)Cl)c4ccc(Br)cc4)c3C2=O)C(=O)N1 (some centres unmarked) [Compound 14b] | > 10 µM | > 10 | 87 ± 13 | > 10 µM | 87 ± 11 | 7.9 | > 10 | 94 ± 5.1 | –
O=C1CCC(N2Cc3cc([C@@H]4C[C@]4(C(=O)OCC(Cl)(Cl)Cl)c4ccc(Br)cc4)ccc3C2=O)C(=O)N1 (some centres unmarked) [Compound 15a] | > 10 µM | > 10 | 99 ± 1.2 | > 10 µM | 96 ± 7.8 | 0.39 | > 10 | – | 100 ± 4.6%
O=C1CCC(N2Cc3cc([C@H]4C[C@@]4(C(=O)OCC(Cl)(Cl)Cl)c4ccc(Br)cc4)ccc3C2=O)C(=O)N1 (some centres unmarked) [Compound 15b] | > 10 µM | 0.16 ± 0.05 | 67 ± 5.4 | > 10 µM | 83 ± 7.0 | 1.3 | 0.22 ± 0.089 | – | 89 ± 5.0%
O=C1CCC(N2C(=O)c3ccc([C@@H]4C[C@]4(C(=O)OCC(Cl)(Cl)Cl)c4ccc(Br)cc4)cc3C2=O)C(=O)N1 (some centres unmarked) [Compound 16a] | > 10 µM | > 10 | 92 ± 8.2 | > 10 µM | – | 5.3 | > 10 | 94 ± 9.9 | 94 ± 8.3%
O=C1CCC(N2C(=O)c3ccc([C@H]4C[C@@]4(C(=O)OCC(Cl)(Cl)Cl)c4ccc(Br)cc4)cc3C2=O)C(=O)N1 (some centres unmarked) [Compound 16b] | > 10 µM | 0.41 ± 0.16 | 60 ± 6.1 | > 10 µM and 3.1 µM | – | > 10 | > 10 | 85 ± 4.1 | 97 ± 3.6%
O=C1CCC(N2Cc3ccc([C@@H]4C[C@]4(C(=O)OCC(Cl)(Cl)Cl)c4ccc(Br)cc4)cc3C2=O)C(=O)N1 (some centres unmarked) [Compound 17a] | > 10 µM | > 10 | 97 ± 2.2 | > 10 µM | 95 ± 5.4 | 2.1 | > 10 | 98 ± 12 | 95 ± 7.6%
O=C1CCC(N2Cc3ccc([C@H]4C[C@@]4(C(=O)OCC(Cl)(Cl)Cl)c4ccc(Br)cc4)cc3C2=O)C(=O)N1 (some centres unmarked) [Compound 17b] | > 10 µM | > 10 | 96 ± 3.1 | > 10 µM | 93 ± 5.8 | 2.5 | > 10 | 96 ± 12 | 89 ± 6.5%
O=C1CCC(N2Cc3cccc([C@@H]4C[C@]4(C(=O)OCC(Cl)(Cl)Cl)c4ccc(Br)cc4)c3C2=O)C(=O)N1 (some centres unmarked) [Compound 18a] | > 10 µM | > 10 | 93 ± 3.8 | > 10 µM | 87 ± 6.5 | > 10 | > 10 | 89 ± 1.7 | 91 ± 0.6%
O=C1CCC(N2Cc3cccc([C@H]4C[C@@]4(C(=O)OCC(Cl)(Cl)Cl)c4ccc(Br)cc4)c3C2=O)C(=O)N1 (some centres unmarked) [Compound 18b] | > 10 µM | > 10 | 96 ± 5.4 | > 10 µM | 83 ± 15 | > 10 | > 10 | 91 ± 7.1 | 96 ± 5.7%
O=C1CCC(N2Cc3c(cccc3C3=C[C@]3(C(=O)OCC(Cl)(Cl)Cl)c3ccc(Br)cc3)C2=O)C(=O)N1 (some centres unmarked) [Compound 19a] | 0.012 µM | 0.019 ± 0.01 | 23 ± 4.5 | 0.17 ± 0.13 µM | 64 ± 8.7 | 0.16 | 0.17 ± 0.18 | 64 ± 4.3 | –
O=C1CCC(N2Cc3c(cccc3C3=C[C@@]3(C(=O)OCC(Cl)(Cl)Cl)c3ccc(Br)cc3)C2=O)C(=O)N1 (some centres unmarked) [Compound 19b] | 0.11 ± 0.05 µM | 0.17 ± 0.06 | 35 ± 5.9 | 0.55 ± 0.47 µM | 66 ± 5.5 | 0.35 | 1.5 ± 1.1 | 60 ± 7.4 | 69 ± 3.3% and 69%
O=C1CCC(N2C(=O)c3cccc(C4=C[C@]4(C(=O)OCC(Cl)(Cl)Cl)c4ccc(Br)cc4)c3C2=O)C(=O)N1 (some centres unmarked) [Compound 20a] | 0.9 ± 0.18 µM | 0.56 ± 0.27 | 34 ± 7.4 | 4.3 ± 1.9 µM | 12 ± 13 | 4.6 | 1.5 ± 0.94 | 56 ± 14 | 40 ± 2.2%
O=C1CCC(N2C(=O)c3cccc(C4=C[C@@]4(C(=O)OCC(Cl)(Cl)Cl)c4ccc(Br)cc4)c3C2=O)C(=O)N1 (some centres unmarked) [Compound 20b] | 3.7 µM and 3.67 µM | 2.8 ± 1.6 | 57 ±7.7 | 5.1 ± 1.4 µM | 17 ± 13 | – | 2.1 ± 1.3 | 54 ± 8.9 | 10 ± 8.2% and 10%
O=C1CCC(N2C(=O)c3ccc(C4=C[C@@]4(C(=O)OCC(Cl)(Cl)Cl)c4ccc(Br)cc4)cc3C2=O)C(=O)N1 (some centres unmarked) [Compound 22b] | 0.31 ± 0.11 µM | 2.4 ± 1.7 | 58 ± 3.2 | – | – | 7.8 | 1.6 ± 0.71 | 55 ± 39 | 71 ± 9.7%
